Assay type in all cases: cell-based
For test [1], the system named is A. fumigatus. Nature of the test: Neutral, additive or synergistic effect of combinations of novamycin plus other antifungal agents, Example 3. The following applies: for Antifungal MIC100: antifungal alone; for MIC100 in Combination, AF: antifungal in combination with Novamycin; for Effect: combination of the antifungal with Novamycin. The protocol:
(§1) Antimicrobial susceptibility testing was performed based on CLSI approved standards M27-A3 and M38-A2. The effects of antimicrobial combinations were evaluated using a chequerboard method (Burkhart et al., 2006) in CLSI conditions.
(§2) The neutral, additive or synergistic effect of combinations of novamycin plus other antifungal agents was studied.

Another test relates to E. dermatitidis. Nature of the test: Antimicrobial susceptibility testing (CLSI M27-A3/M38-A2, chequerboard), MIC100, Example 2. The following applies: for MIC: Exophiala dermatitidis; for MIC100 of the antifungal in combination with Novamycin (+): in combination with MIC100 and sub-MIC100 concentrations of Novamycin. The protocol:
as §1
(§3) Table 1. The MIC100 of clinically used antifungals individually (−) and in combination (+) with Novamycin®.
(§4) (−)=MIC100 (μg/mL) of the antifungal alone (+)=MIC100 (μg/mL) of the antifungal in combination with Novamycin®—=Not analysed

The test system of test [2] is C. albicans. Described as above. The note with it: for MIC: Candida albicans; for MIC100 of the antifungal in combination with Novamycin (+): in combination with MIC100 and sub-MIC100 concentrations of Novamycin. The protocol:
as §1, §3, §4

The subject of test [3] is A. fumigatus. Described as above. The note with it: for MIC: Aspergillus fumigatus; for MIC100 of the antifungal in combination with Novamycin (+): in combination with MIC100 and sub-MIC100 concentrations of Novamycin. The protocol:
as §1, §3, §4

Test [4] deals with C. albicans. Nature of the test: Neutral, additive or synergistic effect of combinations of novamycin plus other antifungal agents, Example 3. The note with it: for Antifungal MIC100: antifungal alone; for MIC100 in Combination, AF: antifungal in combination with Novamycin; for Effect: combination of the antifungal with Novamycin. The protocol: as §1, §2

The values below come from patent publication US20170348381A1, “FORMULATION” (NovaBiotics Limited, priority 2016, published 2017).

By MIC is commonly meant the lowest concentration found to suppress growth.

Consider `C[C@@H](c1ncncc1F)[C@](O)(Cn1cncn1)c1ccc(F)cc1F` [Voriconazole], for which, in the test on A. fumigatus [1], the Antifungal MIC100 was 0.25 µg/mL; the MIC100 in Combination, AF amounted to 0.25 µg/mL; the Effect result is “Neutral”.
Consider `CCC(C)n1ncn(-c2ccc(N3CCN(c4ccc(OCC5COC(Cn6cncn6)(c6ccc(Cl)cc6Cl)O5)cc4)CC3)cc2)c1=O` (stereo not drawn) [ITZ, itraconazole], for which the MIC in the test with E. dermatitidis (antifungal alone) came to 4 µg/mL. Moreover, the “MIC100 of the antifungal in combination with Novamycin (+)” value (“MIC100 of the antifungal in combination” for short) in the test on E. dermatitidis amounted to 2 µg/mL.
Take `CC[C@H](C)C[C@H](C)CCCCCCCCC(=O)N[C@H]1C[C@@H](O)[C@@H](NCCN)NC(=O)[C@@H]2[C@@H](O)CCN2C(=O)[C@H]([C@H](O)CCN)NC(=O)[C@H]([C@H](O)[C@@H](O)c2ccc(O)cc2)NC(=O)[C@@H]2C[C@@H](O)CN2C(=O)[C@H]([C@@H](C)O)NC1=O` [CFN, caspofungin]: the MIC with E. dermatitidis (antifungal alone) is 31.2 µg/mL; in the test on C. albicans [2] (antifungal alone), 0.5 µg/mL; in the test on A. fumigatus [3] (antifungal alone), 0.06 µg/mL. Besides, the results for the “MIC100 of the antifungal in combination” value in the test on E. dermatitidis, in the test on C. albicans [2] and in the test on A. fumigatus [3] were 3.94 µg/mL, 0.03 µg/mL and 0.06 µg/mL, respectively. Moreover, the values for the Antifungal MIC100 in the test with C. albicans [4] and with A. fumigatus [1] were 0.5 µg/mL and 0.06 µg/mL, respectively. For the same molecule, the values for the MIC100 in Combination, AF in the test on C. albicans [4] and in the test on A. fumigatus [1] were 0.03 µg/mL and 0.04 µg/mL, respectively. The Effect entry in the test with C. albicans [4] and in the test with A. fumigatus [1] was “Additive” throughout.
On to `CC[C@@H]([C@H](C)O)n1ncn(-c2ccc(N3CCN(c4ccc(OC[C@@H]5CO[C@@](Cn6cncn6)(c6ccc(F)cc6F)C5)cc4)CC3)cc2)c1=O` [PCZ, pozaconazole], for which the figures for the MIC in the test with C. albicans [2] (antifungal alone) and in the test with A. fumigatus [3] (antifungal alone) were 0.13 µg/mL and 0.25 µg/mL, respectively. For the same molecule, the “MIC100 of the antifungal in combination” value with C. albicans [2] was 0.06 µg/mL; in the test on A. fumigatus [3], 0.125 µg/mL. In addition, the Antifungal MIC100 in the test with C. albicans [4] is less than 0.03 µg/mL; in the test on A. fumigatus [1] it was 0.25 µg/mL. The MIC100 in Combination, AF in the test on C. albicans [4] was less than 0.03 µg/mL; with A. fumigatus [1] it was 0.125 µg/mL. The Effect result with C. albicans [4] was “Neutral”; in the test with A. fumigatus [1], “Additive”.
In the case of `C[C@@H]1[C@H](O)[C@@H](C)/C=C/C=C/C=C/C=C/C=C/C=C/C=C/[C@H](O[C@@H]2O[C@H](C)[C@@H](O)[C@H](N)[C@@H]2O)C[C@@H]2O[C@](O)(C[C@@H](O)C[C@@H](O)[C@H](O)CC[C@@H](O)C[C@@H](O)CC(=O)O[C@H]1C)C[C@H](O)[C@H]2C(=O)O` [AmB, amphotericin B], the “MIC100 of the antifungal alone (−)” value stood at 1 µg/mL with E. dermatitidis (antifungal alone), 0.25 µg/mL in the test on C. albicans [2] (antifungal alone) and 0.25 µg/mL in the test with A. fumigatus [3] (antifungal alone). Besides, the entries for the “MIC100 of the antifungal in combination” value with E. dermatitidis, in the test with C. albicans [2] and with A. fumigatus [3] were 0.12 µg/mL, 0.13 µg/mL and 0.03 µg/mL, respectively. Moreover, the Antifungal MIC100 came out at 0.5 µg/mL in the test with C. albicans [4] and 0.25 µg/mL in the test on A. fumigatus [1]. Also, the results for the MIC100 in Combination, AF with C. albicans [4] and in the test with A. fumigatus [1] were 0.05 µg/mL and 0.03 µg/mL, respectively. For the same molecule, the Effect entry in the test on C. albicans [4] and with A. fumigatus [1] was “Additive” in each case.
